Measurements as given in US8642343B2, “Blood separating agent and blood collection container” (Sekisui Medical Co., Ltd., priority 2010, dated 2014).

Experiment: Solubility of polymerization inhibitors at 25° C.
Details: in water

SMILES	Solubility (25° C.)	Solubility (25° C.) (listed as hydroquinone)
COc1ccc(O)cc1 [Material 1, p-methoxyphenol]	4 g/100 ml	
CC(C)(C)c1cc(O)c(C(C)(C)C)cc1O [Material 2, 2,5-di-t-butylhydroquinone]	0.002 g/100 ml	
c1ccc2c(c1)Nc1ccccc1S2 [Material 3, phenothiazine]	insoluble	
Oc1ccc(O)cc1 [Material 4, hydroquinone, reference compound]	7 g/100 mL g/100 ml	7 g/100 ml
